Patent US20220364056A1, “SHORT-CHAIN FATTY ACID PENTANOATE AS ENHANCER FOR CELLULAR THERAPY AND ANTI-TUMOR THERAPY” (PHILIPPS-UNIVERSITÄT MARBURG, priority 2019, published 2022)

Test system: human CD8+ T lymphocytes
Test: human CD8+ T lymphocytes differentiated into CTLs, flow cytometry
Type: cell-based
Protocol: (A and B) CD8^+ T cells isolated from spleens and LNs were polarized under Tc17-inducing conditions and treated with pentanoate for 3 days. Representative contour plots (A) and bar graphs (B) indicate the frequency of IL-17^+ and IFN-γ+ cells. Three similar experiments were performed. (C and D) CD8^+ T cells isolated from spleens and LNs were polarized under Tc9-inducing conditions and treated with pentanoate for 3 days. Representative contour plots (C) and bar graphs (D) are showing the frequency of IL-9^+ and IFN-γ+ cells. Three similar experiments were performed. (E and F) The expression of granzyme B, IFN-γ and Eomes in pentanoate-treated human CTLs was analysed by flow cytometry. Five independent experiments were performed (E). For Eomes, mean fluorescence intensity (MFI) values are shown (F, n=3).
(A) CD8^+ T cells isolated from peripheral blood of healthy donors were differentiated into CTLs in presence or absence of indicated HDACi. Representative contour plots and dot plots indicate the frequency of TNF-α+ and IFN-γ^+ cells. Data points in the graphs represent individual donors (n=4, performed in 4 independent experiments) (B-G) Phenotyping of pentanoate-treated ROR1-specific CD8^+ CAR T cells (CARROR1 T cells). (B) Experimental setup for the functional analysis is shown. (C) The cytokine secretion (IFN-γ and TNF-α) was analysed in supernatants of pentanoate-treated CARROR1 T cells by ELISA. (D) The surface expression of CD25 was measured by flow cytometry. (E) The secretion of IL-2 was detected in supernatants of CARROR1 T cells by ELISA. (F) Proliferation of CARROR1 T cells was determined by CFSE labelling. CARROR1 T cells pre-treated with pentanoate were stained with CFSE and subsequently co-cultured with […] cells in the absence of pentanoate. CD8^+ T cells without the CAR construct were used as mock control cells. […] The percentage of lysed target cells was determined in 1 hour intervals (effector-to-target cell (E:T) ratio=2.5:1). […]

`CCCCC(=O)O` [pentanoate] was tested, and the “expression of granzyme B, IFN-γ and Eomes” value was “enhancing the expression” and the “expression of TNF-α and IFN-γ” value (healthy donors) was “enhancing the expression”.
